Assay results reported in patent publication US6071884A, “Pharmaceutical compositions and therapeutic methods” (Kirin Beer Kabushiki Kaisha, priority 1992, dated 2000).

What was measured:
[1] = system: marrow cells (mononuclear cell fraction); test: Proliferation-stimulating effect on marrow cell of mouse (3H-TdR uptake); type: cell-based, mouse (BALB/c); conditions: percentage of control, 72 h
In short: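 Mononuclear marrow cell fraction from 7-week-old female BALB/c mouse thigh bone, 1.5×10^6 cells/ml in 10% FCS RPMI 1640, cultured with test sample 72 h at 37° C. ³H-thymidine (0.5 μCi/well) then added for 8 h; nuclear ³H-TdR uptake counted by liquid scintillation.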

[2] = system: marrow cells (mononuclear cell fraction); test: Effect on marrow cell of monkey (3H-TdR uptake); type: cell-based, croo monkey; conditions: Primates, 96 h, percentage of control, 4 days
Method: Pharmacological Test 2: Effect on Marrow Cell of Monkey
Marrow cells were prepared from the humerus of a croo monkey, and an MNF obtained by fractionation using a Lymphoprep (Nycomed Pharma AS, Oslo, Norway) was used in the following experiment.
The MNF was suspended in an RPMI 1640 medium added with 10% blood plasma of a croo monkey to make its concentration 1×10^6 cells/ml.
10 μl/well of a sample with a predetermined concentration and 100 μl/well of the above-prepared MNF were placed on a round-bottomed 96 well plate, and incubated under the conditions of 37° C. and 5% CO2 for 4 days. Thereafter, 0.5 μCi/well of ^3 H-TdR was added. After 6 hours, the cells were harvested, and the amount of the ^3 H-TdR taken in the nuclei was measured by a liquid scintillation counter.

[3] = system: mononuclear cell fraction of human umbilical cord blood; test: Proliferation-stimulating effect on mononuclear cell fraction of human umbilical cord blood (3H-TdR uptake); type: cell-based; conditions: 96 h, percentage of control, 4 days
From the text: Pharmacological Test 3: Proliferation-Stimulating Effect on Mononuclear Cell Fraction of Human Umbilical Cord Blood
It is extremely difficult to obtain human marrow cells. In addition, human umbilical cord blood contains stem cells (Nakahata, T. & Ogwa, M., J. Clin. Inveet. 70, 1324-1328 (1982)), so that it can be a good source of hematopoietic stem/progenitor cell supply (H. E. Broxneyer et al, Proc. Natl. Acad. Sci. USA, 86, 3828-3832 (1989)). For these reasons, the effect on human was examined by using, instead of human marrow cells, human umbilical cord blood.
To human umbilical cord blood was added an equal amount of RPMI 1640. This was placed on a Lymphoprep and centrifugal. The mononuclear cell fraction (MNF) thus obtained was used in the following experiment.
The concentration of the MNF was adjusted to 1×10^6 cells/ml by using an RPMI 1640 added with 10% auto-blood plasma as a culture medium. 10 μl/well of a sample with a predetermined concentration and 100 μl/well of the above-prepared MNF were placed on a round-bottomed 96 well plate and incubated under the conditions of 37° C. and 5% CO2 for 4 days. Thereafter, 0.5 μCi/well of ^3 H-TdR was added. After 8 hour incubation, the cells were harvested, and the amount of the 3H-TdR taken in the nuclei was measured by a liquid scintillation counter.

[4] = Life-span-increasing effect on irradiation of a lethal dose of radiation; type: in vivo, mouse (BDF1); conditions: 10 mice/group, 9 Gy X-ray, 0.1 mg/kg i.v. days 0, 4, 8
Method: Pharmacological Test 4: Life-Span-Increasing Effect on Irradiation of a Lethal Dose of Radiation
An experiment was carried out by using 6 week old female BDF1 mice purchased from Japan SLC Co., Ltd., with 10 mice made one group.
The entire bodies of the entire body of the mice were irradiated with 9 Gy of X-rays by using a Hitachi X-ray irradiator (MBR-1520R), and the day on which the X-ray was irradiated was referred to as "day 0".

[5] = system: blood platelets; test: Thrombocytopenia-inhibiting effect in X-ray-irradiated mice; type: in vivo, mouse (BDF1); conditions: 10 days after 5 Gy X-ray; 0.1 mg/kg i.v. within 2 h; mean ± SD; vehicle per series 10.3, 6.8, 6.7; non-treatment 68.2, 96.9, 73.0
In short: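 Female BDF1 mice, 6 weeks old, six per group, given 5 Gy whole-body X-ray, then 0.1 mg/kg i.v. via tail vein within 2 hours. Platelets counted by hemocytometer in fundus-vein blood 10 days later; untreated and vehicle groups run alongside.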

[6] = system: blood platelets; test: Blood-platelet-increasing effect upon normal mouse; type: in vivo, mouse (BDF1); conditions: normal mice; 6 days after 0.1 mg/kg i.v.; mean ± SD; vehicle per series 58.2, 63.0, 71.1
In short: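 Female BDF1 mice, 6 weeks old (5 per group), received test sample at 0.1 mg/kg into the caudal vein. Six days later, fundus-vein blood was taken and platelets counted on a multi-channel hemocytometer, compared against vehicle-treated animals.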

## CCCCCCCCCCCCCCCCCCCCCCCC[C@@H](O)C(=O)N[C@@H](CO[C@H]1O[C@H](CO)[C@H](O)[C@H](O)[C@H]1O)[C@H](O)[C@H](O)CCCCCCCCCCCCCC [Compound 25]
[1]; 10^-1 μg/ml
  activity at 0.1 µg/mL: 331%
[1]; 10^-2 μg/ml
  activity at 0.01 µg/mL: 161%
[1]; 10^-3 μg/ml
  activity at 0.001 µg/mL: 153%
[2]; 10^-1 μg/ml
  activity at 0.1 µg/mL: 184%
[2]; 10^-2 μg/ml
  activity at 0.01 µg/mL: 186%
[3]; 10^-1 μg/ml
  activity at 0.1 µg/mL: 336%
[3]; 10^-2 μg/ml
  activity at 0.01 µg/mL: 319%
[3]; 10^-3 μg/ml
  activity at 0.001 µg/mL: 229%
[4]; day 10, controls per series 10, 10, 10, 10, 10, 8
  Number of Surviving Mice: 10 mice
[4]; day 15, controls per series 8, 9, 5, 5, 7, 1
  Number of Surviving Mice: 10 mice
[4]; day 20, controls per series 4, 5, 1, 2, 3, 0
  Number of Surviving Mice: 7 mice
[4]; day 25, controls per series 3, 3, 0, 0, 2, 0
  Number of Surviving Mice: 7 mice
[4]; day 30, controls per series 1, 1, 0, 0, 0, 0
  Number of Surviving Mice: 5 mice
[4]; day 35, all controls 0
  Number of Surviving Mice: 5 mice
[4]; day 40, all controls 0
  Number of Surviving Mice: 5 mice
[5]
  Number of Blood Platelets: 15.6 ± 5.3 × 10^4 /μl
[6]
  Number of Blood Platelets: 124.1 ± 14.7 × 10^4 /μl
